Source: ChEMBL document CHEMBL1135181, “Synthesis and anti-influenza virus activity of 7-O-alkylated derivatives related to zanamivir” (Bioorg Med Chem Lett, 2002)

Columns and labels:
Influenza A virus [1] = experiment: In vitro antiviral activity against Influenza A.; type: functional, organism-based
[2] = molecular target: Neuraminidase (Influenza A virus (A/Puerto Rico/8/1934(H1N1)), UniProt P03468); experiment: Inhibition of influenza A sialidase in vitro.
Influenza A virus [3] = experiment: Inhibitory concentration by Plaque reduction assay; range-1.9-12; type: functional, organism-based
Influenza A virus [4] = experiment: Inhibitory concentration by Plaque reduction assay; range-1.9-20; type: functional, organism-based

Neuraminidase (Influenza A virus (A/Puerto Rico/8/1934(H1N1)), UniProt P03468), sequence (P03468 whole entry): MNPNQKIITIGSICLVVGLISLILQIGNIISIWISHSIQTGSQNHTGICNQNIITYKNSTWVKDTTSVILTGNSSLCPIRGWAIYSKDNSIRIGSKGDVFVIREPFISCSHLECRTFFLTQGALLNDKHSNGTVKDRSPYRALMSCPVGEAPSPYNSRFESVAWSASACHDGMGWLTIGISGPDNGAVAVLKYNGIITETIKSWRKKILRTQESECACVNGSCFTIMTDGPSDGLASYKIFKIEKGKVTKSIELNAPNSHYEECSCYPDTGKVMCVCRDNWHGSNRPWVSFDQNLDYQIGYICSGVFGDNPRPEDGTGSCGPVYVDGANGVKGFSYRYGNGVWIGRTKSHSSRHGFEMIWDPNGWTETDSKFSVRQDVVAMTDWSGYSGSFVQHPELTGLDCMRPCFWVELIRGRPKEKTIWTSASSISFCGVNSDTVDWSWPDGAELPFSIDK

SMILES | IC50 (Influenza A virus [1]) | IC50 [2] | IC50 (Influenza A virus [3]) | IC50 (Influenza A virus [4])
CC(=O)N[C@H]1[C@H]([C@H](OCC2CCCCC2)[C@H](O)CO)OC(C(=O)O)=C[C@@H]1NC(=N)N.O=C(O)C(F)(F)F | 3 ng/mL | 67.5 nM | – | –
CCO[C@H](CC)[C@@H]1OC(C(=O)O)=C[C@H](N=C(N)N)[C@H]1NC(C)=O.O=C(O)C(F)(F)F | 16 ng/mL | 79.3 nM | – | –
CCCCCCCCCCCCO[C@@H]([C@@H]1OC(C(=O)O)=C[C@H](N=C(N)N)[C@H]1NC(C)=O)[C@H](O)CO.O=C(O)C(F)(F)F | 2.2 ng/mL | 80.7 nM | – | –
CCCO[C@@H]([C@@H]1OC(C(=O)O)=C[C@H](N=C(N)N)[C@H]1NC(C)=O)[C@H](O)CO.O=C(O)C(F)(F)F | 1.5 ng/mL | 62.7 nM | – | –
CCCO[C@H](CC)[C@@H]1OC(C(=O)O)=C[C@H](N=C(N)N)[C@H]1NC(C)=O.O=C(O)C(F)(F)F | 9 ng/mL | 30.9 nM | – | –
CCCCCCCCCCCCO[C@H](CC)[C@@H]1OC(C(=O)O)=C[C@H](N=C(N)N)[C@H]1NC(C)=O.O=C(O)C(F)(F)F | > 50 ng/mL | 48.7 nM | – | –
CC(=O)NCCO[C@@H]([C@@H]1OC(C(=O)O)=C[C@H](N=C(N)N)[C@H]1NC(C)=O)[C@H](O)CO.O=C(O)C(F)(F)F | 2.4 ng/mL | 18.4 nM | – | –
CCCCCCCCO[C@H](CC)[C@@H]1OC(C(=O)O)=C[C@H](N=C(N)N)[C@H]1NC(C)=O.O=C(O)C(F)(F)F | 40 ng/mL | 31.5 nM | – | –
CCO[C@@H]([C@@H]1OC(C(=O)O)=C[C@H](N=C(N)N)[C@H]1NC(C)=O)[C@H](O)CO | – | 55.7 nM | – | –
CC(=O)N[C@H]1[C@H]([C@H](OCCN)[C@H](O)CO)OC(C(=O)O)=C[C@@H]1NC(=N)N.O=C(O)C(F)(F)F | 7.5 ng/mL | 97.5 nM | – | –
CCCCCO[C@H](CC)[C@@H]1OC(C(=O)O)=C[C@H](N=C(N)N)[C@H]1NC(C)=O.O=C(O)C(F)(F)F | 3.8 ng/mL | 18.8 nM | – | –
CCCCCCCCCCCCCCO[C@@H]([C@@H]1OC(C(=O)O)=C[C@H](N=C(N)N)[C@H]1NC(C)=O)[C@H](O)CO.O=C(O)C(F)(F)F | 11 ng/mL | 408 nM | – | –
CC(=O)N[C@H]1[C@H]([C@H](OCCO)[C@H](O)CO)OC(C(=O)O)=C[C@@H]1NC(=N)N.O=C(O)C(F)(F)F | 1.8 ng/mL | 21 nM | – | –
CC(=O)N[C@H]1[C@H]([C@H](OCCC2CCCCC2)[C@H](O)CO)OC(C(=O)O)=C[C@@H]1NC(=N)N.O=C(O)C(F)(F)F | 1.9 ng/mL | 47.3 nM | – | –
CCCCCCCCO[C@@H]([C@@H]1OC(C(=O)O)=C[C@H](N=C(N)N)[C@H]1NC(C)=O)[C@H](O)CO.O=C(O)C(F)(F)F | 1.8 ng/mL | 36.2 nM | – | –
CCCCCO[C@@H]([C@@H]1OC(C(=O)O)=C[C@H](N=C(N)N)[C@H]1NC(C)=O)[C@H](O)CO.O=C(O)C(F)(F)F | 2 ng/mL | 27.7 nM | – | –
CC(=O)N[C@H]1[C@H]([C@H](OCCN=[N+]=[N-])[C@H](O)CO)OC(C(=O)O)=C[C@@H]1NC(=N)N.O=C(O)C(F)(F)F | 1.5 ng/mL | 28.7 nM | – | –
CC(=O)N[C@H]1[C@H]([C@H](O)[C@H](O)CO)OC(C(=O)O)=C[C@@H]1NC(=N)N.O=C(O)C(F)(F)F [ZANAMIVIR TFA] | – | – | 1.9 ng/mL | 1.9 ng/mL
